pIC50: −log10 of the molar value.
Columns and labels:
[1] = biological target: T1, Recombinant human HDAC6 (Homo sapiens, UniProt Q9UBN7); assay: Biochemical HDAC assay, HDAC6; details: incubation time 10 min
T1 construct: full-length, MW=180 kDa; GST tag (N); made in house; host or cells: Sf9 insect cells (baculovirus)
T1 sequence (Q9UBN7 1-1215): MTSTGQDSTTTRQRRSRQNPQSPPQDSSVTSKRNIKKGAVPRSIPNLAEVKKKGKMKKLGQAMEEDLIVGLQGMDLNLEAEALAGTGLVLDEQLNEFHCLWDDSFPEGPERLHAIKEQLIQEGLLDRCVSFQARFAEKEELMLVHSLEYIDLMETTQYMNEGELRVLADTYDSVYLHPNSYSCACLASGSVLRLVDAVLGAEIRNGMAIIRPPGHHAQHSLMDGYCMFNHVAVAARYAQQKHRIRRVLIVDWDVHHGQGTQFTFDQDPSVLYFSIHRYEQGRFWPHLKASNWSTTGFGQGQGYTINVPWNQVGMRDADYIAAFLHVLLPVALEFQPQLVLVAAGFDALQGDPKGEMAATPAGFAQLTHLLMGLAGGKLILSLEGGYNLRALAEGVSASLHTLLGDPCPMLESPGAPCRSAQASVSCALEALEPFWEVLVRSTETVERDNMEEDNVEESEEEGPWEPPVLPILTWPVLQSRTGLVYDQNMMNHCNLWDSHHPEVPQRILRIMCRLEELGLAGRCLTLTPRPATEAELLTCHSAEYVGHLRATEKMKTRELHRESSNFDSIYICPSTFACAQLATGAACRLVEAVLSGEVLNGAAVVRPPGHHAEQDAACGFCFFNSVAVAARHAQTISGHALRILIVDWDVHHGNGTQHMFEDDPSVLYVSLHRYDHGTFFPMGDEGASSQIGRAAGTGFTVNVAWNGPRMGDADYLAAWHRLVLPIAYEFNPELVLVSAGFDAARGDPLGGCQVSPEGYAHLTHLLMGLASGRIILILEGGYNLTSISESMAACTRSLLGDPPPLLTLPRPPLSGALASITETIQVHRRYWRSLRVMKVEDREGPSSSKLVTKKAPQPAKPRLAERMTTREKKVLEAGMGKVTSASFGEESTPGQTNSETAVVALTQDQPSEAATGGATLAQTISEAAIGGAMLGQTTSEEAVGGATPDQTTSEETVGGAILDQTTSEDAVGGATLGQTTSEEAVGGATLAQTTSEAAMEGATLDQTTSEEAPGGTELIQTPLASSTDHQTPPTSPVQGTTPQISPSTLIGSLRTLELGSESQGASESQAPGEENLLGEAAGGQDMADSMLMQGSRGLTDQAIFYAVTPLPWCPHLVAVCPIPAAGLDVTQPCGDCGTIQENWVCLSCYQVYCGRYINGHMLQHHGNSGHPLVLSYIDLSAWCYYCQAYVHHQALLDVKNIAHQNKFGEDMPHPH
Procedure: Recombinant human HDAC6 (GenBank Accession No. BC069243), full-length, MW=180 kDa, was expressed by baculovirus in Sf9 insect cells using an N-terminal GST tag.
(§1) • I. Compound handling: Testing compounds were dissolved in 100% DMSO to a specific concentration. The serial dilution was conducted by epMotion 5070 in DMSO. • II. HDAC reaction buffer: 50 mM Tris-HCl, pH8.0, 137 mM NaCl, 2.7 mM KCl, and 1 mM MgCl2, Added fresh: 1 mg/ml BSA, 1% DMSO. • III. Substrate: Fluorogenic HDAC General Substrate for HDAC1, 2, 3, 6, 10, 11 ans Sirt1, 2 and 3: Arg-His-Lys-Lys(Ac); HDAC8 only substrate: Arg-His-Lys(Ac)-Lys(Ac); Class2A Substrate (HDAC4, 5, 7 and 9): Acetyl-Lys(trifluoroacetyl)-AMC; Sirt5 substrate: Ac-Lys(succinyl)-AMC. • IV. General Reaction Procedure: (Standard IC50 determination) • a. Delivered 2× enzyme in wells of reaction plate except No Enzyme (No En) control wells. Add buffer in No En wells. • b. Delivered compounds in 100% DMSO into the enzyme mixture by Acoustic technology (Echo550; nanoliter range). Spin down and pre-incubation. • c. Delivered 2× Substrate Mixture (Fluorogenic HDAC Substrate and co-factor (500 μM of Nicotinamide adenine dinucleotide (NAD^+) in all Sirt assay) in all reaction wells to initiate the reaction. Spin and shake. • d. Incubated for 1-2 hr. at 30° C. with seal. • e. Added Developer with Trichostatin A (or TMP269 or NAD^+) to stop the reaction and to generate fluorescent color. • f. Fluorescence was read (excitatory, 360; emission, 460) using the EnVision Multilabel Plate Reader (Perkin Elmer) • g. Endpoint reading was taken for analysis after the development reaches plateau. • V. Data Analysis: The percentages of enzyme activity (relative to DMSO controls) and IC50 values were calculated using the GraphPad Prism 4 program based on a sigmoidal dose-response equation.
(§2) Compounds with indicated doses was tested in the biochemical assays of HDAC1, HDAC2, HDAC3, HDAC4, HDAC5, HDAC6, HDAC7, HDAC8, HDAC9, HDAC10, or HDAC11 enzyme. The incubation time in HDAC1/2 assays are 120 min, and that for other HDACs are 10 min. The curve fit and IC50 values were calculated using the GraphPad Prism 4 program based on a sigmoidal dose-response equation.

[2] = biological target: T2, Human HDAC8 (Homo sapiens, UniProt Q9BY41); assay: Biochemical HDAC assay, HDAC8; details: incubation time 10 min
T2 construct: full-length with a C-terminal His tag; His tag (C); made in house
T2 sequence (Q9BY41 1-377): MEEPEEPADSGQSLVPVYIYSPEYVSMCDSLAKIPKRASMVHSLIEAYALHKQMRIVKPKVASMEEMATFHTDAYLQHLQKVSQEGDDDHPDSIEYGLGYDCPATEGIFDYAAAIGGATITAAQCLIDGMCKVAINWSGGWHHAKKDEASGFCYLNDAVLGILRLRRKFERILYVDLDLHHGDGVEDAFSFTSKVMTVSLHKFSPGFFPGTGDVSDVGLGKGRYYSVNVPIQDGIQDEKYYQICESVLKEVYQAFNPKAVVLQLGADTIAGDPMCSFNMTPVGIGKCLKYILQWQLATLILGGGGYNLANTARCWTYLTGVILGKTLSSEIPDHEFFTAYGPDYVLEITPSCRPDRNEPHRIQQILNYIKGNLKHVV
Procedure: Human HDAC8 (GenBank Accession No. NM_018486), full-length with a C-terminal His tag, MW=46.4 kDa, was expressed in a baculovirus expression system.
as §1, §2

[3] = biological target: T3, Human HDAC1 (Homo sapiens, UniProt Q13547); assay: Biochemical HDAC assay, HDAC1; details: incubation time 120 min
T3 construct: full-length with a C-terminal His-tag and a C-terminal FLAG-tag; His-tag (C); FLAG-tag (C); made in house
T3 sequence (Q13547 whole entry): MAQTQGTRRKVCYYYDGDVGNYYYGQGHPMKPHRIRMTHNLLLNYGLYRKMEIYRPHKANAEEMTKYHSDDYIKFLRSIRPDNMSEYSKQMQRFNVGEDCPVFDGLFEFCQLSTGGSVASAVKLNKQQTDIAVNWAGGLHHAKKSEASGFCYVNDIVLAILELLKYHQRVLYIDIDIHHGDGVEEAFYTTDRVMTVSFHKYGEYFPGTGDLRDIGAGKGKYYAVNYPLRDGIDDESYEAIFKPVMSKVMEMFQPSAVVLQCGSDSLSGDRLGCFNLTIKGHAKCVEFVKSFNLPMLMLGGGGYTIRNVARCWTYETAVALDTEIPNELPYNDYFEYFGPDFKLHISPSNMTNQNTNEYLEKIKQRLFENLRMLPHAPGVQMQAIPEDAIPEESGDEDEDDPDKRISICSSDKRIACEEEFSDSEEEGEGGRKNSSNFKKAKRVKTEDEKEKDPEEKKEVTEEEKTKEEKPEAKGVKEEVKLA
Procedure: Human HDAC1 (GenBank Accession No. NM_004964), full-length with a C-terminal His-tag and a C-terminal FLAG-tag, MW=56 kDa, was expressed in a baculovirus expression system.
as §1, §2

pIC50 [1]: < 5.00 | pIC50 [2]: < 5.00 | pIC50 [3]: 8.60
SMILES: Nc1ccc(-c2cccs2)cc1NC(=O)c1ccc2c(c1)CCC(=O)N2 [Example 5, N-(2-amino-5-(thiophen-2-yl)phenyl)-2-oxo-1,2,3,4-tetrahydroquinoline-6-carboxamide]
